Assay [1] concerns the target T1, p75^NTR receptors (PC12 cells) (Rattus norvegicus, UniProt P07174).
T1 construct: endogenous in cells; host or cells: PC12 cells
T1 sequence (P07174 30-425): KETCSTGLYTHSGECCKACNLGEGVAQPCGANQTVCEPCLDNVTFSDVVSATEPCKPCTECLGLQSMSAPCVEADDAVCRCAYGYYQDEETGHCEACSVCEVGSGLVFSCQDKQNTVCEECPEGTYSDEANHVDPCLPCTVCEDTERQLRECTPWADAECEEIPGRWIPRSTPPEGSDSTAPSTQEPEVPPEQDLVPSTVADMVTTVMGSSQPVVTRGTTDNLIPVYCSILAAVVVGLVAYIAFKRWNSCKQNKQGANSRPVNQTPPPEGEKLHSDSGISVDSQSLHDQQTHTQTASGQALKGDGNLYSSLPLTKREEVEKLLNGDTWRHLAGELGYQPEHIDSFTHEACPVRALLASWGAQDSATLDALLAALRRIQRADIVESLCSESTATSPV
T1 sequence (P23560 129-247 partner): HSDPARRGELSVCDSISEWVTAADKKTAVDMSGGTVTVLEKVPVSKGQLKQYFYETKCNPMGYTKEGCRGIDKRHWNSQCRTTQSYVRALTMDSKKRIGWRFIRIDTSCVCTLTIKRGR
Briefly: Basic screening assay: binding of 125I-BDNF to PC12 cells. The note with it: read-out: BDNF Activity % Maximal Binding. The method in brief:
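4×10^6 PC12 cells incubated 2 h at 4° C, rotating, with 0.5 nM ^125I-BDNF (final) and compound at 50 μM, in duplicate or more. Bound ligand separated through 10% glycerol by centrifugation and counted by gamma counter; specific binding is Bmax minus NSB; inhibitors followed up for EC50.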

Assay [2] concerns p75^NTR receptors (PC12 cells). Briefly: Basic screening assay: binding of 125I-NGF to PC12 cells. The note with it: Table 4; test compound 50 μM; 0.5 nM 125I-NGF; PC12 cells; 2 h at 4° C.; specific binding as percent of control. The method in brief: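 Inhibition of 0.5 nM 125I-NGF binding to p75NTR on PC12 cells was measured with compounds at 50 μM during 2 h rotation at 4° C. Cell-bound radioactivity from glycerol-cushion centrifugation was gamma-counted, giving NSB-corrected binding as % of control specific binding.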

[3] abbreviates: Table 4, test compound 50 μM, 0.5 nM 125I-BDNF, PC12 cells, 2 h at 4° C., specific binding as percent of control.

Like-named read-outs stand apart in the source and are kept apart here.

`Cc1cc([N+](=O)[O-])ccc1-c1ccc(C=C2NC(=S)NC2=O)o1` [Compound 94, 5-[5-(2-Methyl-4-nitrophenyl)furan-2-ylmethylene]-2-thioxo-imidazolidin-4-one]: the activity at 50 µM in assay [1] (setting [3]) is > 50%. Also, the “NGF Activity % Maximal Binding” value in assay [2] is on record as “* (50 < *)”.

For `Cc1cc(-c2ccc(C=C3NC(=S)NC3=O)o2)ccc1[N+](=O)[O-]` [Compound 95, 5-[5-(3-Methyl-4-nitrophenyl)furan-2-ylmethylene]-2-thioxo-imidazolidin-4-one], the activity at 50 µM in assay [1] (setting [3]) is > 50%. In addition, the “NGF Activity % Maximal Binding” value in assay [2] was “* (50 < *)”.

Take `Cc1cc(-c2ccc(C=C3C(=O)NC(=O)NC3=O)o2)ccc1[N+](=O)[O-]` [Compound 96, 5-[5-(3-Methyl-4-nitrophenyl)furan-2-ylmethylene]-pyrimidine-2,4,6-trione]: the activity at 50 µM in assay [1] is > 50%. Further, in assay [2], the “NGF Activity % Maximal Binding” value is given as “* (50 < *)”.

With `O=C(O)CCCN1C(=O)C(=Cc2ccc(-c3ccc([N+](=O)[O-])cc3)o2)SC1=S` [Compound 98, 4-{5-[5-(4-Nitrophenyl)furan-2-ylmethylene]-4-oxo-2-thioxo-thiazolidin-3-yl}-butyric acid], the activity at 50 µM in assay [1] (setting [3]) was > 50%. Further, in assay [2], the “NGF Activity % Maximal Binding” value was “* (50 < *)”.

Regarding `CCOC(=O)c1ccc(-c2ccc(C=C3C(=O)NC(=S)NC3=O)o2)cc1` [Compound 99, 4-[5-(4,6-Dioxo-2-thioxo-tetrahydro-pyrimidin-5-ylidenemethyl)furan-2-yl]benzoic acid ethyl ester], in assay [1], the activity at 50 µM is > 50%. Besides, the “NGF Activity % Maximal Binding” value in assay [2] is on record as “* (50 < *)”.

As for `O=C1NC(=S)S/C1=C/c1ccc(-c2ccc([N+](=O)[O-])cc2Br)o1` [Compound 100, 5-[5-(2-Bromo-4-nitrophenyl)furan-2-ylmethylene]-2-thioxo-thiazolidin-4-one], the activity at 50 µM in assay [1] (setting [3]) is > 50%. Besides, in assay [2], the “NGF Activity % Maximal Binding” value is given as “* (50 < *)”.

As to `COc1cc([N+](=O)[O-])ccc1-c1ccc(/C=C2\SC(=S)NC2=O)o1` [Compound 101, 5-[5-(2-Methoxy-4-nitrophenyl)furan-2-ylmethylene]-2-thioxo-thiazolidin-4-one], the activity at 50 µM in assay [1] (setting [3]) is > 50%. Moreover, the “NGF Activity % Maximal Binding” value in assay [2] is “* (50 < *)”.

For the compound `Cc1ccc(N2NC(=O)/C(=C/c3ccc(-c4ccc(S(N)(=O)=O)cc4)o3)C2=O)cc1` [Compound 102, 4-[5-(3,5-Dioxo-1-p-tolyl-pyrazolidin-4-ylidenemethyl)furan-2-yl]benzenesulfonamide], in assay [1] (setting [3]), the activity at 50 µM is > 50%. Besides, the “NGF Activity % Maximal Binding” value in assay [2] is given as “* (50 < *)”.

Regarding `N=C1NC(=O)C(=Cc2ccc(-c3ccc([N+](=O)[O-])cc3Br)o2)S1` [Compound 103, 5-[5-(2-Bromo-4-nitrophenyl)furan-2-ylmethylene]-2-imino-thiazolidin-4-one], the activity at 50 µM in assay [1] (setting [3]) is > 50%. Moreover, the “NGF Activity % Maximal Binding” value in assay [2] is “* (50 < *)”.

With `CCc1ccc(N2NC(=O)/C(=C/c3ccc(-c4ccc(S(N)(=O)=O)cc4)o3)C2=O)cc1` [Compound 104, 4-{5-[1-(4-Ethylphenyl)-3,5-dioxo-pyrazolidin-4-ylidenemethyl]furan-2-yl}benzenesulfonamide], the activity at 50 µM in assay [1] (setting [3]) is > 50%. The “NGF Activity % Maximal Binding” value in assay [2] is “* (50 < *)”.

Turning to `NS(=O)(=O)c1ccc(-c2ccc(C=C3C(=O)NC(=S)NC3=O)o2)cc1` [Compound 105, 4-[5-(4,6-Dioxo-2-thioxo-tetrahydro-pyrimidin-5-ylidenemethyl)furan-2-yl]benzenesulfonamide], the activity at 50 µM in assay [1] was > 50%. Further, in assay [2], the “NGF Activity % Maximal Binding” value is given as “* (50 < *)”.

For `Cc1ccc(-c2ccc(C=C3C(=O)NC(=S)NC3=O)o2)cc1[N+](=O)[O-]` [Compound 106, 5-[5-(4-Methyl-3-nitrophenyl)furan-2-ylmethylene]-2-thioxo-dihydro-pyrimidine-4,6-dione], the activity at 50 µM in assay [1] is > 50%. For the same compound, the “NGF Activity % Maximal Binding” value in assay [2] is “* (50 < *)”.

`COC(=O)c1cccc(-c2ccc(C=C3C(=O)NC(=S)NC3=O)o2)c1` [Compound 107, 3-[5-(4,6-Dioxo-2-thioxo-tetrahydro-pyrimidin-5-ylidenemethyl)furan-2-yl]benzoic acid methyl ester]: in assay [1], the activity at 50 µM is > 50%. In assay [2], the “NGF Activity % Maximal Binding” value is “* (50 < *)”.

On to `O=C1NC(=S)N/C1=C/c1ccc(-c2ccc(C(=O)O)c(Cl)c2)o1` [Compound 108, 2-Chloro-4-[5-(5-oxo-2-thioxo-imidazolidin-4-ylidenemethyl)furan-2-yl]benzoic acid], for which the activity at 50 µM in assay [1] (setting [3]) was > 50%. Further, the “NGF Activity % Maximal Binding” value in assay [2] was “* (50 < *)”.

Regarding `Cc1c(-c2ccc(C=C3C(=O)NC(=O)NC3=O)o2)cccc1[N+](=O)[O-]` [Compound 109, 5-[5-(2-Methyl-3-nitrophenyl)furan-2-ylmethylene]-pyrimidine-2,4,6-trione], in assay [1], the activity at 50 µM was > 50%. In assay [2], the “NGF Activity % Maximal Binding” value is reported as “* (50 < *)”.

`CCN1C(=O)S/C(=C\c2ccc(-c3ccc([N+](=O)[O-])cc3)o2)C1=O` [Compound 110, 3-Ethyl-5-[5-(4-nitrophenyl)furan-2-ylmethylene]-thiazolidine-2,4-dione]: the activity at 50 µM in assay [1] (setting [3]) is > 50%. Also, the “NGF Activity % Maximal Binding” value in assay [2] was “* (50 < *)”.

For `CSC1=NC(=Cc2ccc(-c3ccc([N+](=O)[O-])cc3)o2)C(=O)S1` [Compound 111, 2-Methylsulfanyl-4-[5-(4-nitrophenyl)furan-2-ylmethylene]-4H-thiazol-5-one], the activity at 50 µM in assay [1] (setting [3]) was > 50%. Moreover, in assay [2], the “NGF Activity % Maximal Binding” value is reported as “* (50 < *)”.

As for `CSC1=NC(=Cc2ccc(-c3cccc([N+](=O)[O-])c3)o2)C(=O)S1` [Compound 112, 2-Methylsulfanyl-4-[5-(3-nitrophenyl)furan-2-ylmethylene]-4H-thiazol-5-one], the activity at 50 µM in assay [1] (setting [3]) was > 50%. The “NGF Activity % Maximal Binding” value in assay [2] is given as “* (50 < *)”.

For `CCOC(=O)CN1C(=O)S/C(=C\c2ccc(-c3ccc(Cl)c([N+](=O)[O-])c3)o2)C1=O` [Compound 113, {5-[5-(4-Chloro-3-nitrophenyl)furan-2-ylmethylene]-2,4-dioxo-thiazolidin-3-yl}-acetic acid ethyl ester], in assay [1] (setting [3]), the activity at 50 µM was > 50%. Further, the “NGF Activity % Maximal Binding” value in assay [2] was “* (50 < *)”.

Turning to `Cc1ccc(-c2ccc(/C=C3/NC(=O)NC3=O)o2)cc1[N+](=O)[O-]` [Compound 114, 5-[5-(4-Methyl-3-nitrophenyl)furan-2-ylmethylene]-imidazolidine-2,4-dione], the activity at 50 µM in assay [1] (setting [3]) is > 50%. Further, in assay [2], the “NGF Activity % Maximal Binding” value is on record as “* (50 < *)”.

Take `CCOC(=O)CN1C(=O)S/C(=C\c2ccc(-c3ccc(Cl)c(C(=O)O)c3)o2)C1=O` [Compound 115, 2-Chloro-5-[5-(3-ethoxycarbonylmethyl-2,4-dioxo-thiazolidin-5-ylidenemethyl)furan-2-yl]benzoic acid]: the activity at 50 µM in assay [1] (setting [3]) is > 50%. Moreover, the “NGF Activity % Maximal Binding” value in assay [2] is listed as “* (50 < *)”.

As to `CCOC(=O)CN1C(=O)S/C(=C/c2ccc(-c3cccc([N+](=O)[O-])c3)o2)C1=O` [Compound 116, {5-[5-(3-Nitrophenyl)furan-2-ylmethylene]-2,4-dioxo-thiazolidin-3-yl}-acetic acid ethyl ester], in assay [1] (setting [3]), the activity at 50 µM was > 50%. The “NGF Activity % Maximal Binding” value in assay [2] is “* (50 < *)”.

In the case of `CCOC(=O)CN1C(=O)S/C(=C\c2ccc(-c3ccc([N+](=O)[O-])cc3)o2)C1=O` [Compound 117, {5-[5-(4-Nitrophenyl)furan-2-ylmethylene]-2,4-dioxo-thiazolidin-3-yl}-acetic acid ethyl ester], in assay [1] (setting [3]), the activity at 50 µM is > 50%. The “NGF Activity % Maximal Binding” value in assay [2] is listed as “* (50 < *)”.

As for `CCOC(=O)CN1C(=O)S/C(=C/c2ccc(-c3ccc([N+](=O)[O-])cc3OC)o2)C1=O` [Compound 118, {5-[5-(2-Methoxy-4-nitrophenyl)furan-2-ylmethylene]-2,4-dioxo-thiazolidin-3-yl}-acetic acid ethyl ester], in assay [1] (setting [3]), the activity at 50 µM was > 50%. Also, the “NGF Activity % Maximal Binding” value in assay [2] is recorded as “* (50 < *)”.

`O=C1NN(c2ccc(F)cc2)C(=O)C1=Cc1ccc(-c2ccc([N+](=O)[O-])cc2)o1` [Compound 119, 1-(4-Fluorophenyl)-4-[5-(4-nitrophenyl)furan-2-ylmethylene]-pyrazolidine-3,5-dione]: in assay [1] (setting [3]), the activity at 50 µM is > 50%. The “NGF Activity % Maximal Binding” value in assay [2] is recorded as “* (50 < *)”.

Turning to `COCCN1C(=O)C(=Cc2ccc(-c3ccc([N+](=O)[O-])cc3)o2)SC1=S` [Compound 120, 3-(2-Methoxy-ethyl)-5-[5-(4-nitrophenyl)furan-2-ylmethylene]-2-thioxo-thiazolidin-4-one], the activity at 50 µM in assay [1] (setting [3]) is > 50%. Also, in assay [2], the “NGF Activity % Maximal Binding” value is reported as “* (50 < *)”.

These data come from patent US20050282840A1, “Methods of modulating neurotrophin-mediated activity” (PainCeptor Pharma Corporation, priority 2004, published 2005).
